Where “and” joins values, the source holds several entries; their conditions need not be identical. Equal entries are not always repeated.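 Briefly, cells in 96-well plates were exposed to five compound concentrations for 48 h, and endpoints were estimated by linear interpolation. Here, GI50 denotes the concentration required for 50% inhibition of growth. The concentration for full growth arrest is given as TGI.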
Key:
Assay in all cases: NCI tumour cell line growth inhibition, 48 h
[1] = tested on: COLO 205 colon
[2] = tested on: HCC-2998 colon
[3] = tested on: HOP-62 NSCLC
[4] = tested on: OVCAR-8 ovarian
[5] = tested on: SF-295 CNS
[6] = tested on: SN12C renal
[7] = tested on: SNB-19 CNS
[8] = tested on: HT29 colon
[9] = tested on: UO-31 renal
[10] = tested on: PC-3 prostate

Work on `O=C1c2ccc3c4c(ccc(c24)C(=O)N1CCNCc1ccccc1)C(=O)N(CCNCc1ccccc1)C3=O` yielded a GI50 [1] of 1.65 µM, a TGI [1] of 3.01 µM and a GI50 [2] of 1.74 µM. The TGI [2] was 3.15 µM, the GI50 [3] was 1.91 µM and the TGI [3] was 4.57 µM. The GI50 [4] was 1.2 µM, the TGI [4] was 4.26 µM and the GI50 [5] was 1.78 µM. For the same compound, the TGI [5] was 5.2 µM, the GI50 [6] was 1.63 µM and the TGI [6] was 3.05 µM. It also gave a GI50 [7] of 2.67 µM and a TGI [7] of 9.28 µM.

In the case of `CCOC(=O)C(=O)C(C#N)c1ccc(Cl)cc1` (stereo unspecified), the TGI [1] is reported as greater than 100 µM, the TGI [3] is reported as greater than 100 µM and the TGI [8] is reported as greater than 100 µM. The TGI [4] was greater than 100 µM, the TGI [5] was greater than 100 µM and the TGI [6] was greater than 100 µM. The TGI [7] was greater than 100 µM and the TGI [9] was greater than 100 µM.

For `CC1(C)C(CC(=O)O)CCCC1CC(=O)O` (stereo unspecified), the TGI [1] was greater than 100 µM, the TGI [3] was greater than 100 µM and the TGI [8] was greater than 100 µM. The TGI [4] was greater than 100 µM, the TGI [10] was greater than 100 µM and the TGI [5] was greater than 100 µM. For the same compound, the TGI [6] was greater than 100 µM, the TGI [7] was greater than 100 µM and the TGI [9] was greater than 100 µM.

With `Cc1cc(Cl)cc2c1NC(=O)C2(O)C(C(=O)c1ccccc1)c1ccccc1` (stereo unspecified) the GI50 [1] was > 100 µM and 15.2 µM, the TGI [1] was > 100 µM and 30 µM and the TGI [2] was > 100 µM and 60.4 µM. For the same compound, the TGI [3] was greater than 100 µM, the TGI [8] was greater than 100 µM and the GI50 [4] was > 100 µM and 32.5 µM. For the same compound, the TGI [4] was greater than 100 µM, the TGI [5] was greater than 100 µM and the GI50 [6] was > 100 µM and 14.9 µM. For the same compound, the TGI [6] was > 100 µM and 38.6 µM, the TGI [7] was greater than 100 µM and the GI50 [9] was 67.6 µM and 27.3 µM. For the same compound, the TGI [9] was > 100 µM and 48.4 µM.

`Nc1c(C(=O)Nc2cccc(C(F)(F)F)c2)sc2nc3c(cc12)CCCCCC3` showed a GI50 [1] of 3.07 µM, a TGI [1] of 14 µM and a GI50 [2] of 12.3 µM. It also gave a TGI [2] greater than 100 µM, a GI50 [8] of 3.24 µM and a TGI [8] of 32.4 µM. For the same compound, the GI50 [4] was 2.24 µM, the TGI [4] was 6.82 µM and the GI50 [10] was 4.31 µM. The TGI [10] was 32.7 µM, the GI50 [5] was 1.58 µM and the TGI [5] was 3.6 µM. The GI50 [6] was 3.15 µM, the TGI [6] was 13 µM and the GI50 [7] was 3.16 µM. The TGI [7] was 13.1 µM, the GI50 [9] was 2.18 µM and the TGI [9] was 8.57 µM.

`O=C(O)CCC1c2[nH]c3ccccc3c2CCN1Cc1ccccc1` (stereo unspecified) was tested, and the TGI [1] was greater than 100 µM, the TGI [2] was greater than 100 µM and the TGI [8] was greater than 100 µM. For the same compound, the TGI [4] was greater than 100 µM, the TGI [5] was greater than 100 µM and the TGI [6] was greater than 100 µM. For the same compound, the TGI [7] was greater than 100 µM and the TGI [9] was greater than 100 µM.

Compound `O=C(CC1(O)C(=O)Nc2ccccc21)c1ccccc1O` (stereo unspecified) has a TGI [1] greater than 100 µM, a TGI [3] greater than 100 µM and a TGI [8] greater than 100 µM. The TGI [4] was greater than 100 µM, the TGI [5] was greater than 100 µM and the TGI [6] was greater than 100 µM. The TGI [7] was greater than 100 µM and the TGI [9] was greater than 100 µM.

With `Cc1c(C(=O)c2ccccc2)[n+](=O)c2cc(F)c(F)cc2n1[O-]` the GI50 [1] was 3.31 µM, the TGI [1] was 11.5 µM and the GI50 [3] was 1.84 µM. The TGI [3] was 3.4 µM, the GI50 [8] was 2.52 µM and the TGI [8] was greater than 100 µM. For the same compound, the GI50 [4] was 2.02 µM, the TGI [4] was 4.32 µM and the GI50 [10] was 3.37 µM. The TGI [10] was 14.1 µM, the GI50 [5] was 1.95 µM and the TGI [5] was 3.46 µM. For the same compound, the GI50 [7] was 2.3 µM, the TGI [7] was 5.3 µM and the GI50 [9] was 2.04 µM. The TGI [9] was 4.13 µM.

For `CC1[C@@H]2CC=C3[C@H]4CCC5Cc6nc7c(nc6C[C@@]5(C)C4CC(=O)[C@]32CO[C@]12OC(C)(C)CC2O)CC1CC[C@@H]2C3=C[C@H]4O[C@@]5(O[C@@](C)(CO)C[C@@H]5O)C(C)[C@@]4(O)[C@]3(C)[C@@H](O)CC2[C@]1(C)C7` (stereo partly specified), the GI50 [1] was 0.00217 µM and 0.00857 µM, the TGI [1] was 0.00721 µM and 0.0301 µM and the GI50 [2] was 0.292 µM. For the same compound, the TGI [2] was 0.912 µM and > 3.65 µM, the GI50 [3] was 0.00024 µM and 0.000365 µM and the TGI [3] was 0.00248 µM and 0.00609 µM. The GI50 [8] was 0.00282 µM and 0.00152 µM, the TGI [8] was 0.0487 µM and 0.027 µM and the TGI [4] was 0.745 µM and > 3.65 µM. The GI50 [10] was 0.000287 µM, the TGI [10] was 0.0274 µM and the GI50 [5] was 0.000124 µM and < 0.000365 µM. The TGI [5] was 0.000434 µM and < 0.000365 µM, the GI50 [6] was 0.295 µM and the TGI [6] was 0.906 µM and > 3.65 µM. The GI50 [7] was 0.00459 µM and 0.00921 µM and the TGI [7] was 0.537 µM and 0.443 µM.
